Results on five compounds are retold here after patent publication US4031259A, “Process of preparing nutritive sweetening compositions” (General Foods Corporation, priority 1975, dated 1977).

Data set [1] in a line: Rate of solubility: time to complete dissolution in room temperature distilled water (10 ml, pH 5.7, constant stirring); Solubility Factor derived from it. The class given is physicochemical. Conditions: APM alone (control); for Rate of Solubility (time until complete dissolution): in 10 ml room temperature distilled water, pH 5.7, magnetic stirrer, B3: incomplete dissolution after this time. As for the experimental part:
The following represents a broad ratio of systems tested in order to evaluate the effect protein hydrolysates have on the rate of solubility of APM.
All systems were prepared by dissolving the ingredients in water and freeze-drying. Evaluations were made in room temperature distilled water (10 ml) having a pH of 5.7 with constant stirring by a magnetic stirrer. The time was clocked from the instant the powder hit the water until complete dissolution.
Samples A1 - A4 consisted of 1 g. each in 10 ml; samples B1 - B4 (controls) consisted of the amount indicated, also in 10 ml., the total amount of APM in the controls being equivalent to the respective test samples (A1 - A4). Where applicable, the ratio expressed is of APM to soy isolate respectively.
A convenient way of expressing the change in the solubility rate of a given amount of sweetener after combining with protein hydrolysate and dried is called the "Solubility Factor."
This is expressed as follows: [formula] the higher the SF value, the more appreciable the improvement in solubility.

The conditions of data set [2]: as much as; cited from earlier work.

Where a SMILES comes first, the peptide text is derived from it. Where only a bound is given, the exact number is not on record here.

In the case of `COC(=O)[C@H](Cc1ccccc1)NC(=O)[C@@H](N)CC(=O)O` [Sample B3, L-aspartyl-L-phenylalanine methyl ester] (H-Asp-Phe-OMe), the “Rate of Solubility (time until complete dissolution)” value in data set [1] is more than 50 min.
As to `COC(=O)[C@H](Cc1ccccc1)NC(=O)[C@@H](N)CC(=O)O` [Sample B1, L-aspartyl-L-phenylalanine methyl ester] (H-Asp-Phe-OMe), the “Rate of Solubility (time until complete dissolution)” value in data set [1] turned out to be 7 min.
As for `COC(=O)[C@H](Cc1ccccc1)NC(=O)[C@@H](N)CC(=O)O` [Sample B4, L-aspartyl-L-phenylalanine methyl ester] (H-Asp-Phe-OMe), the “Rate of Solubility (incomplete dissolution after)” value in data set [1] (200 mgs. in 10 ml room temperature distilled water, pH 5.7) was more than 1 h.
As for `COC(=O)[C@H](Cc1ccccc1)NC(=O)[C@@H](N)CC(=O)O` [Sample B2, L-aspartyl-L-phenylalanine methyl ester] (H-Asp-Phe-OMe), the “Rate of Solubility (time until complete dissolution)” value in data set [1] amounted to 11 min.
Take `COC(=O)[C@H](Cc1ccccc1)NC(=O)[C@@H](N)CC(=O)O` [APM, L-aspartyl-L-phenylalanine methyl ester] (H-Asp-Phe-OMe): the “sweetness relative to sucrose” value in data set [2] is recorded as not above 200 times as sweet as sucrose.
